Data taken from ChEMBL document CHEMBL5226284, “Small Molecule Inhibitors Targeting Biosynthesis of Ceramide, the Central Hub of the Sphingolipid Network” (J Med Chem, 2021).
One block for each compound: values may come before it.

How the values were obtained:
[1] = target: T1, Sphingolipid delta(4)-desaturase DES1 (Homo sapiens, UniProt O15121); experiment: Noncompetitive inhibition of DES1 in human HGC-27 cell lysates assessed as inhibition constant; format: subcellular
T1 sequence (O15121 whole entry): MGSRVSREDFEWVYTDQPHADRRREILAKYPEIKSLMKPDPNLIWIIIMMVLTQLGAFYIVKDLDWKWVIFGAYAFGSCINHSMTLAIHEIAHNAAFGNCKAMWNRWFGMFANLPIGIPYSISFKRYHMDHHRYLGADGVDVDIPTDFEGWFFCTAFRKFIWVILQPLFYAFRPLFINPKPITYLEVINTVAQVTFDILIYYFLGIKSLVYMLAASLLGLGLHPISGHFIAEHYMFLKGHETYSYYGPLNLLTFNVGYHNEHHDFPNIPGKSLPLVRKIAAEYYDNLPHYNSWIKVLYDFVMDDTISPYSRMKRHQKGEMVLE

[2] = Competitive inhibition of rat brain aSMase assessed as inhibition constant; format: tissue-based
[3] = Inhibition of rat brain aSMase using HMU-PC as substrate incubated for 3 hrs by fluorescence based analysis; format: tissue-based
Ceramide synthase 2 [4] = target: T2, Ceramide synthase 2 (Homo sapiens, UniProt Q96G23); experiment: Inhibition of CerS2 in HPAC cells using DHSph as substrate; format: cell-based
T2 sequence (Q96G23 whole entry): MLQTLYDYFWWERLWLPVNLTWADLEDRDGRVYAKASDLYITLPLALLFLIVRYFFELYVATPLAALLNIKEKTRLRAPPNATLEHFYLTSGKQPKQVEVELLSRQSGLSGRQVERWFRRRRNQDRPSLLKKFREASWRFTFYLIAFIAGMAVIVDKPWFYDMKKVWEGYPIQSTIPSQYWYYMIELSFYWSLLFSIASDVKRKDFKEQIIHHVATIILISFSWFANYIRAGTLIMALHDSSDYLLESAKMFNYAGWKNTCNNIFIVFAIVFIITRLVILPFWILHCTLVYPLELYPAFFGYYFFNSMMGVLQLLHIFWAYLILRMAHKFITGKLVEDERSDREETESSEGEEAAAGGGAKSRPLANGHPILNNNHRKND

Ceramide synthase 2 [5] = target: T2, Ceramide synthase 2; experiment: Competitive inhibition of CerS2 in HPAC cells using DHSph as substrate by LC/MS/MS analysis; format: cell-based
[6] = target: T3, Sphingomyelin phosphodiesterase 2 (Rattus norvegicus, UniProt Q9ET64); experiment: Inhibition of rat brain microsomes nSMase assessed as inhibition constant; parameters: species or system Microsome
T3 sequence (Q9ET64 whole entry): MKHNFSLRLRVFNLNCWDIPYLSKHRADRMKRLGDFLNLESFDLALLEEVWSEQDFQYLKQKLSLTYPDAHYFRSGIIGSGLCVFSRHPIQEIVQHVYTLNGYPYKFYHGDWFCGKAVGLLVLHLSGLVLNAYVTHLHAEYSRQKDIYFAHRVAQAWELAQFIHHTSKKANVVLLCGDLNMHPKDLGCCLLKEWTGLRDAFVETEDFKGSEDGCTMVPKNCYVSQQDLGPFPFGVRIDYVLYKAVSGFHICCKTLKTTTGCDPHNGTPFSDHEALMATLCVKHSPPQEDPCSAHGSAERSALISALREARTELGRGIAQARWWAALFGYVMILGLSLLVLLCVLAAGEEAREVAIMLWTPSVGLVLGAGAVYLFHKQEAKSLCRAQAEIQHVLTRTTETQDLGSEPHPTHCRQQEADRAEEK

[7] = target: T4, Sphingolipid delta(4)-desaturase DES1 (Rattus norvegicus, UniProt Q5XIF5); experiment: Inhibition of rat liver microsome DES1 incubated for 1 hr fluorescence based analysis; format: microsomes
T4 sequence (Q5XIF5 whole entry): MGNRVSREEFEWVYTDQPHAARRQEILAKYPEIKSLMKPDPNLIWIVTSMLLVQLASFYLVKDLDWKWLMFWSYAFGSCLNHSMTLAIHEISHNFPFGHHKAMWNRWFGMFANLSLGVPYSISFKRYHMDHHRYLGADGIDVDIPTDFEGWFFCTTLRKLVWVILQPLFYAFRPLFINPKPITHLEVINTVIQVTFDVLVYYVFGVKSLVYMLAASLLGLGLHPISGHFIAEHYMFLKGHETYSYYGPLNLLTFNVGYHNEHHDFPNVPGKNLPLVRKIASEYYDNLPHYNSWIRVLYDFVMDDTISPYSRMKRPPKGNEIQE

Acetylcholinesterase = Acetylcholinesterase (Homo sapiens, UniProt P22303); experiment: Inhibition of AChe (unknown origin)
Sequence of Acetylcholinesterase (P22303 whole entry): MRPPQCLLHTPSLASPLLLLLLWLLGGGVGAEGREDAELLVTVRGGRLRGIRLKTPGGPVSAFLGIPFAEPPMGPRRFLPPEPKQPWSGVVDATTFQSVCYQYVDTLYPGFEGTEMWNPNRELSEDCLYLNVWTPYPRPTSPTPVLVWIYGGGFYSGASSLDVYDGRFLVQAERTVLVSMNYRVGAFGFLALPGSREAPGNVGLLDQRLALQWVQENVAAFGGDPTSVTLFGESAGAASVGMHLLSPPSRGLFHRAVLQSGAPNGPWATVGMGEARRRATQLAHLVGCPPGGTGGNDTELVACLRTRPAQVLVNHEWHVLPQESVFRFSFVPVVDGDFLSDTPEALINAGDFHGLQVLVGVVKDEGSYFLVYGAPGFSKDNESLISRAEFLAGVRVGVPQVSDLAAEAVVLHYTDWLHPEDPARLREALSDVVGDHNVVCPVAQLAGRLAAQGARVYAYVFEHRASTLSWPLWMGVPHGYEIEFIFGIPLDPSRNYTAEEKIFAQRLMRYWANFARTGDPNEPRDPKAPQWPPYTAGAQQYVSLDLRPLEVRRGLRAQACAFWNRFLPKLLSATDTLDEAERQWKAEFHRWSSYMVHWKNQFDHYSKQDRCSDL

[8] = Inhibition of Bacillus cereus nSMase
[9] = target: T4, Sphingolipid delta(4)-desaturase DES1; experiment: Inhibition of rat liver microsome DES1 using N-octanoylsphinganine as substrate incubated for 30 mins; format: microsomes
[10] = target: T1, Sphingolipid delta(4)-desaturase DES1; experiment: Binding affinity to DES1 in human HGC-27 cell lysates assessed as inhibition constant; format: subcellular
[11] = target: T1, Sphingolipid delta(4)-desaturase DES1; experiment: Inhibition of DES1 in human HGC-27 cell lysates; format: subcellular
Ceramide synthase 2 [12] = target: T2, Ceramide synthase 2; experiment: Inhibition of human CerS2
Ceramide synthase 5 = Ceramide synthase 5 (Mus musculus, UniProt Q9D6K9); experiment: Inhibition of mouse CerS5
Sequence of Ceramide synthase 5 (Q9D6K9 whole entry): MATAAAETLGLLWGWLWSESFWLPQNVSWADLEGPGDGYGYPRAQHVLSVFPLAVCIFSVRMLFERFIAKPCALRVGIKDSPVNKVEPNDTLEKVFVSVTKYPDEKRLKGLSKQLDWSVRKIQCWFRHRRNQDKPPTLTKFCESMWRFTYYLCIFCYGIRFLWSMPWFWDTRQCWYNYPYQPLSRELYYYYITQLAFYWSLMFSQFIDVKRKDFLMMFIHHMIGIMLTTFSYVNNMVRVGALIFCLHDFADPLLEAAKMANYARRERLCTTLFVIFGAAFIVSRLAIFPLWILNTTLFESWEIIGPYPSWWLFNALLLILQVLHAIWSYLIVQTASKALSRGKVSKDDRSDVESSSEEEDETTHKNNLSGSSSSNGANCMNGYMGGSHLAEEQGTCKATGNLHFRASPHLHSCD

Ceramide synthase 6 = Ceramide synthase 6 (Homo sapiens, UniProt Q6ZMG9); experiment: Inhibition of human CerS6
Sequence of Ceramide synthase 6 (Q6ZMG9 whole entry): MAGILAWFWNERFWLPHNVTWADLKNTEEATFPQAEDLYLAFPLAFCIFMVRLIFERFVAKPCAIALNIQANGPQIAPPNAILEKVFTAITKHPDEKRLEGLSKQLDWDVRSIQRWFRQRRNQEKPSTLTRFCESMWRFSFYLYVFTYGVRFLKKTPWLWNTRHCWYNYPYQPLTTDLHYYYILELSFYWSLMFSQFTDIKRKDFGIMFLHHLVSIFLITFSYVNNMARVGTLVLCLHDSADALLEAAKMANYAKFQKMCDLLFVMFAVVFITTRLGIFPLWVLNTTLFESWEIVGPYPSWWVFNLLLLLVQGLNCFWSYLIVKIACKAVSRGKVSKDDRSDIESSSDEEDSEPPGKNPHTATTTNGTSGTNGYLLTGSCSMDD

Ceramide synthase 2 [13] = target: Ceramide synthase 2 (Mus musculus, UniProt Q924Z4); experiment: Inhibition of mouse CerS2
Sequence of Ceramide synthase 2 (Mus musculus, UniProt Q924Z4) (Q924Z4 whole entry): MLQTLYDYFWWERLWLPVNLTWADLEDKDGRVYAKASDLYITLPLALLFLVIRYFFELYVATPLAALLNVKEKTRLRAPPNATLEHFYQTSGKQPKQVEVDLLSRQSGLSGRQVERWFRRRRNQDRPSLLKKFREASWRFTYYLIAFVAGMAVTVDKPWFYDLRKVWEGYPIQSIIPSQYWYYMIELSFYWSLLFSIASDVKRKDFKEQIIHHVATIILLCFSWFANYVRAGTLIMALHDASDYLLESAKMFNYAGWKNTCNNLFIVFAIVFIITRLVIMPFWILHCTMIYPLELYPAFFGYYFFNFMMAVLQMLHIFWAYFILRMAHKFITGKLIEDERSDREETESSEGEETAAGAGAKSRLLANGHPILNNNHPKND

Ceramide synthase 4 = Ceramide synthase 4 (Homo sapiens, UniProt Q9HA82); experiment: Inhibition of human CerS4
Sequence of Ceramide synthase 4 (Q9HA82 whole entry): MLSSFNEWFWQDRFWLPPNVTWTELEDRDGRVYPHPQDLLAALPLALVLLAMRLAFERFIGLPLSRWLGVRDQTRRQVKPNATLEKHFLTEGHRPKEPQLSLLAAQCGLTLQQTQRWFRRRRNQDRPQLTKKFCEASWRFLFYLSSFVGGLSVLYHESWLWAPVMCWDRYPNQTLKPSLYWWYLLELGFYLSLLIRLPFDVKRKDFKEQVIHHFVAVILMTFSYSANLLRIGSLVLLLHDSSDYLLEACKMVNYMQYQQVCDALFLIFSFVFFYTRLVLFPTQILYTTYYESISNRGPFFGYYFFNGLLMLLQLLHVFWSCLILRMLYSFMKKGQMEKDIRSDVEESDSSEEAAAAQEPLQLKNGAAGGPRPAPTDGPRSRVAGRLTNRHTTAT

[14] = Inhibition of rat liver microsome Sphingosine N-acyltransferase assessed as inhibition of [3H]sphingosine to [3H]ceramide conversion incubated for 2 hrs; format: microsomes
[15] = target: Sphingomyelinase C (Bacillus cereus) (UniProt P11889); experiment: Inhibition of Bacillus cereus SMaseC at 100 uM relative to control
Sequence of Sphingomyelinase C (Bacillus cereus) (P11889 whole entry): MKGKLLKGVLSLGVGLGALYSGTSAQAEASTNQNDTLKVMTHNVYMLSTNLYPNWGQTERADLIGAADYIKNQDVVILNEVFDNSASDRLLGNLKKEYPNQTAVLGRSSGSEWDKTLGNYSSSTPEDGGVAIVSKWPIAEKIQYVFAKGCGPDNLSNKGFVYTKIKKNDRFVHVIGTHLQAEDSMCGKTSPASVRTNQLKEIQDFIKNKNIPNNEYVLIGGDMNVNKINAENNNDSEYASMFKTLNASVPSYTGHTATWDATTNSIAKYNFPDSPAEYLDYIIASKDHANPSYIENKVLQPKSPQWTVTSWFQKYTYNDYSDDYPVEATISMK

[16] = target: T4, Sphingolipid delta(4)-desaturase DES1; experiment: Inhibition of rat liver microsome DES1 incubated for 20 min in presence of NADH by liquid scintillation counter method; format: microsomes
[17] = target: T4, Sphingolipid delta(4)-desaturase DES1; experiment: Inhibition of rat liver microsome DES1 assessed as inhibition constant incubated for 20 mins in presence of NADH by liquid scintillation counter method; format: microsomes
[18] = target: T1, Sphingolipid delta(4)-desaturase DES1; experiment: Inhibition of DES1 (unknown origin)
[19] = Non-competitive inhibition of bovine brain microsomes nSMase assessed as inhibition constant; parameters: species or system Bos taurus, Microsome
[20] = Inhibition of bovine brain microsomes nSMase; parameters: species or system Bos taurus, Microsome
[21] = Inhibition of rat plasma secretory SMase; format: cell-free
[22] = Mixed type inhibition of human recombinant glucocerebrosidase at pH 5.6
[23] = Mixed type inhibition of human recombinant glucocerebrosidase at pH 6.7
[24] = Mixed type inhibition of human recombinant glucocerebrosidase at pH 4.3
[25] = target: T3, Sphingomyelin phosphodiesterase 2; experiment: Inhibition of rat brain nSMase; format: tissue-based
[26] = target: Sphingomyelin phosphodiesterase (Homo sapiens, UniProt P17405); experiment: Inhibition of recombinant human aSMase assessed as inhibition constant
Sequence of Sphingomyelin phosphodiesterase (P17405 whole entry): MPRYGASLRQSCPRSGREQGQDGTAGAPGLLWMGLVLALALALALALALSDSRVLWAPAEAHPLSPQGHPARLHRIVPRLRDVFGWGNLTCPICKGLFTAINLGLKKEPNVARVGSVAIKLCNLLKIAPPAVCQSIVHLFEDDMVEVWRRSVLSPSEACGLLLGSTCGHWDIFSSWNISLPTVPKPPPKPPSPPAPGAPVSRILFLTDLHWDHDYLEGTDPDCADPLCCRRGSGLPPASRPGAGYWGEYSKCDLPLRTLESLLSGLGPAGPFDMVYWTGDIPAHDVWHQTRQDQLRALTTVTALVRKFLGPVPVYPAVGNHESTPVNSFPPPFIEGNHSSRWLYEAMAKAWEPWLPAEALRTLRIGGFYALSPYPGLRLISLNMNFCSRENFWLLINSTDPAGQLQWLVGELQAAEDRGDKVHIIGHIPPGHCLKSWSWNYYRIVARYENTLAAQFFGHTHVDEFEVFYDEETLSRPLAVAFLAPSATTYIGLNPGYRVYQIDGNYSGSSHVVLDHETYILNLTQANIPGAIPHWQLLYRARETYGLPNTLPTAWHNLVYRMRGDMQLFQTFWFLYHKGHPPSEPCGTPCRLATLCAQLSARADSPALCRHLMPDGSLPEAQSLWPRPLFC

[27] = target: Sphingomyelin phosphodiesterase (Homo sapiens) (UniProt P17405); experiment: Inhibition of recombinant human aSMase at 5 uM relative to control
Sequence of Sphingomyelin phosphodiesterase (Homo sapiens) (P17405 whole entry): as above

SMILES: Oc1ccc(Nc2nc(-c3ccc(Cl)cc3)cs2)cc1
Ki [1]: 0.3 µM

SMILES: CCCCCCCCc1ccc(CCC(N)(CO)CO)cc1 [FINGOLIMOD]
IC50 (Ceramide synthase 2 [4]): 6.4 µM
Ki (Ceramide synthase 2 [5]): 2.15 µM

SMILES: COc1cc(O)c(C(=O)O)c(-c2cc(O)c(O)cc2C)c1 [ALTENUSIN]
Ki [6]: 20 µM

SMILES: CN1c2ccc(OC(=O)Nc3ccncc3)cc2[C@]2(C)CCO[C@H]12
IC50 (Acetylcholinesterase): 7 µM

SMILES: CCCCCCCCCCCCCC1=C([C@@H](O)[C@H](CO)NC(=O)CCCCCCC)C1
Ki [9]: 6 µM
Ki [10]: 0.022 µM
IC50 [11]: 0.052 µM

SMILES: CCCC[C@@H](C)[C@@H](OC(=O)C[C@@H](CC(=O)O)C(=O)O)[C@H](C[C@@H](C)C[C@H](O)CCCC[C@@H](O)C[C@H](O)[C@H](C)N)OC(=O)C[C@@H](CC(=O)O)C(=O)O
IC50 [14]: 0.1 µM

SMILES: CC1=C(/C=C/C(C)=C/C=C/C(C)=C/C(=O)Nc2ccc(O)cc2)C(C)(C)CCC1 [FENRETINIDE]
IC50 [16]: 2.32 µM
Ki [17]: 8.28 µM
IC50 [18]: 0.1 µM

SMILES: CCCCCCCCCCCCCCCC(=O)N[C@H](CC(F)(F)P(=O)(O)O)[C@@H](O)c1ccccc1
Ki [19]: 1.6 µM
IC50 [20]: 3.3 µM

SMILES: Nc1c(Br)cc(Br)cc1CN[C@H]1CC[C@H](O)CC1 [AMBROXOL]
IC50 [22]: 31 µM
IC50 [23]: 8.1 µM
IC50 [24]: > 1100 µM

Further lines, results first:

Ki [2]: 0.42 µM
IC50 [3]: 0.9 µM
SMILES: CCCCCCCCCCCCOS(=O)(=O)O[C@@H]1[C@H](O)[C@H](OP(=O)(O)O)[C@@H](O)[C@H](OP(=O)(O)O)[C@H]1O

IC50 [7]: 8.2 µM
SMILES: CCCCCCCCCCCCCSC[C@@H](O)[C@H](CO)NC(=O)CCCCCCC

IC50 [8]: 5 µM
SMILES: O=c1[nH]c(=S)[nH]c(-c2ccccc2)c1Cc1c(O)ccc2ccccc12 [CAMBINOL]

IC50 (Ceramide synthase 2 [12]): 7 µM
IC50 (Ceramide synthase 5): 7 µM
IC50 (Ceramide synthase 6): 7 µM
IC50 (Ceramide synthase 2 [13]): 7 µM
IC50 (Ceramide synthase 4): 7 µM
SMILES: C[C@@](N)(CO)CCc1ccc(OCc2ccc(Cl)c(Cl)c2)cc1

inhibition [15]: 20%
SMILES: CCCCCCCCCCCCC/C=C/[C@@H](OCc1cccc(-c2ccccn2)n1)[C@H](CO)NC(=O)CCCCC

IC50 [21]: 1.7 µM
SMILES: COc1cc([C@H]2Oc3cc(O)cc(O)c3C[C@H]2OC(=O)c2cc(O)c(O)c(O)c2)cc(O)c1O

IC50 [25]: 1 µM
SMILES: O=C(/C=C/c1ccc(/C=C/C(=O)Nc2ccc(C3=NCCN3)cc2)cc1)Nc1ccc(C2=NCCN2)cc1

Ki [26]: 0.53 µM
inhibition [27]: > 90%
IC50 [3]: 0.93 µM
SMILES: CCCCCCCC(=O)OC[C@H](COP(=O)(O)O[C@@H]1[C@H](O)[C@H](OP(=O)(O)O)[C@@H](O)[C@H](OP(=O)(O)O)[C@H]1O)OC(=O)CCCCCCC
